# Test results taken from patent publication EP4342530A1, “SORTILIN MODULATORS” (Insusense ApS, priority 2022, dated 2024).
# Legend:
# h-Sortilin = biological target: T1, h-Sortilin (Homo sapiens, UniProt Q99523); assay: Neurotensin scintillation proximity assay (displacement of [3H]-neurotensin binding); settings: 150 nM 6his-Sortilin, 5 nM [3H]-Neurotensin; average of at least 2 determinations; read-out: IC50 [3H]Neurotensin SPA
# T1 sequence (Q99523 78-831): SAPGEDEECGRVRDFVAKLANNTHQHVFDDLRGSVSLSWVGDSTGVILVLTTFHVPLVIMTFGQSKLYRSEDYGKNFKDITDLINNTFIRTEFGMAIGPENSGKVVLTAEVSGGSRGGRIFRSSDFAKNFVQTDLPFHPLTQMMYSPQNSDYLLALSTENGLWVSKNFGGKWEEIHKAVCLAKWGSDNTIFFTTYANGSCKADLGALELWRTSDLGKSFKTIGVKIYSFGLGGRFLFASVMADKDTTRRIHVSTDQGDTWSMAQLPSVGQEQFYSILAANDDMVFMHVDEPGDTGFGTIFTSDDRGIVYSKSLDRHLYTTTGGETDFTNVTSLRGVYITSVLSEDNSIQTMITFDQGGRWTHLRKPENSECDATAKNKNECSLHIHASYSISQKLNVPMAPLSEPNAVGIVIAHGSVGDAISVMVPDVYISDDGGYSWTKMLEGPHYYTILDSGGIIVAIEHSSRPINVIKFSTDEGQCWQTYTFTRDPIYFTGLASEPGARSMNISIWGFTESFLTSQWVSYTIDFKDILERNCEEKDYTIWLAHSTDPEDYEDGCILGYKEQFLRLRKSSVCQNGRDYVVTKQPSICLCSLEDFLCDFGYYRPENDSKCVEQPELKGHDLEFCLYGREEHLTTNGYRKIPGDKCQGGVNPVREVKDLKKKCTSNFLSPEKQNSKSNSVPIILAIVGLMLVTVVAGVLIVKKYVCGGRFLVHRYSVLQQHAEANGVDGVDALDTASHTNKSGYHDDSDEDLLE
# In short: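 Compounds pre-incubated 30 min at room temperature with 150 nM 6His-sortilin in HEPES pH 7.4 buffer with NaCl, CaCl2, BSA and Tween-20, then 5 nM [3H]-neurotensin and Ni chelate SPA beads added; read after 6 h. IC50 from 8-point variable-slope fits, mean of at least 2 determinations.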
# [1] = Brain homogenate binding by rapid equilibrium dialysis, rat brain; type: in vitro ADME; settings: pH 7.4, 37 °C, dilution factor 5, read-out: Unbound (Fu, %)
# Procedure: Plasma protein binding and brain homogenate binding for study compounds in mouse, dog, and rat by rapid equilibrium dialysis
# In practice, unbound fractions in plasma and brain tissue were assessed using rapid equilibrium dialysis in vitro. Separately a pharmacokinetic study was run in vivo whereby a dose of the compound of interest was given at T=0 hours and at subsequent timepoints (eg 0.5, 1 and 4 hours) plasma and separately brain samples were analysed for total concentration of the compound of interest. These total concentrations could then be adjusted with the unbound fraction to give the unbound concentrations in the plasma and brain.
# The test compounds were incubated in plasma and brain homogenate from the relevant species at 37 °C in RED device with inserts (8K MWCO, Thermo scientific) for 4 hours at 5 µM in triplicates. 350 µL of 150 mM phosphate buffered saline (PBS, pH 7.4) was used as the receiver side solutions. […] After 10-minute centrifugation at 13 200 rpm, the sample supernatants were analysed with an LC-MS/MS, to obtain the unbound fraction of the test compound (Fub). The unbound fraction was calculated from the peak area ratios obtained for each matrix: Fub = CPBS /Cplasma; [formula] where CPBS and Cplasma are the analyte concentrations in PBS (receiver) and plasma (donor), respectively. […]
# [2] = Blood-brain-barrier permeability in mice after IV administration; settings: male, CD1 (ICR), mouse, intravenous, 3 mg/kg
# Procedure: The compound is administered to the animal in a suitable vehicle at T=0 hours. At 0.5 hours post administration plasma and separately brain are removed, prepared and analysed for total compound concentration.
# Temperature: 45 °C Injection Volume: 1.5 µl for brain, 4 µl for plasma Ion Source: ESI+, SRM detection
# The unbound partition coefficient (Kpuu) was determined as a ratio between the free compound concentrations in plasma and brain: Kpuu = (Cub,brain)/(Cub,plasma) [formula]
# Where Cu,brain = unbound concentration in brain (C × Fub, brain); wherein • C = concentration at steady state; and • Cub,plasma = unbound concentration in plasma (C × Fub).
IC50 (h-Sortilin) [nM],"fraction unbound at 4 h, 5 µM [1]",concentration at 0.5 h ([2]; brain) [ng/g],Kp at 0.5 h ([2]; brain/plasma),concentration at 0.5 h ([2]; plasma) [ng/mL],Structure (SMILES)
230,0.371,61.2,0.21,292,"CC(C)(C)CC[C@H](NCc1ccc2c(c1)COCC2)C(=O)O [Example 3, (S)-2-((isochroman-7-ylmethyl)amino)-5,5-dimethylhexanoic acid]"
210,–,–,–,–,C[C@@H](N[C@@H](CCC(C)(C)C)C(=O)O)c1ccc2c(c1)OCCC2 [Example 9]
230,–,–,–,–,C[C@H](N[C@@H](CCC(C)(C)C)C(=O)O)c1ccc2c(c1)CCCO2 [Example 50]
260,–,–,–,–,C[C@@H](N[C@@H](CCC(C)(C)C)C(=O)O)c1ccc2c(c1)CCCO2 [Example 52]
